Molecular target: T1, Piezo1 (Rattus norvegicus, UniProt Q0KL00)
T1 construct: native channel in INS-1 832/13 and BRIN-BD11 rat β-cell lines
Test: fura-2 Ca2+ influx and whole-cell patch-clamp in INS-1 cells; Piezo1 siRNA reduced Yoda1-induced insulin release
Type: cell-based

T1 sequence (Q0KL00 whole entry): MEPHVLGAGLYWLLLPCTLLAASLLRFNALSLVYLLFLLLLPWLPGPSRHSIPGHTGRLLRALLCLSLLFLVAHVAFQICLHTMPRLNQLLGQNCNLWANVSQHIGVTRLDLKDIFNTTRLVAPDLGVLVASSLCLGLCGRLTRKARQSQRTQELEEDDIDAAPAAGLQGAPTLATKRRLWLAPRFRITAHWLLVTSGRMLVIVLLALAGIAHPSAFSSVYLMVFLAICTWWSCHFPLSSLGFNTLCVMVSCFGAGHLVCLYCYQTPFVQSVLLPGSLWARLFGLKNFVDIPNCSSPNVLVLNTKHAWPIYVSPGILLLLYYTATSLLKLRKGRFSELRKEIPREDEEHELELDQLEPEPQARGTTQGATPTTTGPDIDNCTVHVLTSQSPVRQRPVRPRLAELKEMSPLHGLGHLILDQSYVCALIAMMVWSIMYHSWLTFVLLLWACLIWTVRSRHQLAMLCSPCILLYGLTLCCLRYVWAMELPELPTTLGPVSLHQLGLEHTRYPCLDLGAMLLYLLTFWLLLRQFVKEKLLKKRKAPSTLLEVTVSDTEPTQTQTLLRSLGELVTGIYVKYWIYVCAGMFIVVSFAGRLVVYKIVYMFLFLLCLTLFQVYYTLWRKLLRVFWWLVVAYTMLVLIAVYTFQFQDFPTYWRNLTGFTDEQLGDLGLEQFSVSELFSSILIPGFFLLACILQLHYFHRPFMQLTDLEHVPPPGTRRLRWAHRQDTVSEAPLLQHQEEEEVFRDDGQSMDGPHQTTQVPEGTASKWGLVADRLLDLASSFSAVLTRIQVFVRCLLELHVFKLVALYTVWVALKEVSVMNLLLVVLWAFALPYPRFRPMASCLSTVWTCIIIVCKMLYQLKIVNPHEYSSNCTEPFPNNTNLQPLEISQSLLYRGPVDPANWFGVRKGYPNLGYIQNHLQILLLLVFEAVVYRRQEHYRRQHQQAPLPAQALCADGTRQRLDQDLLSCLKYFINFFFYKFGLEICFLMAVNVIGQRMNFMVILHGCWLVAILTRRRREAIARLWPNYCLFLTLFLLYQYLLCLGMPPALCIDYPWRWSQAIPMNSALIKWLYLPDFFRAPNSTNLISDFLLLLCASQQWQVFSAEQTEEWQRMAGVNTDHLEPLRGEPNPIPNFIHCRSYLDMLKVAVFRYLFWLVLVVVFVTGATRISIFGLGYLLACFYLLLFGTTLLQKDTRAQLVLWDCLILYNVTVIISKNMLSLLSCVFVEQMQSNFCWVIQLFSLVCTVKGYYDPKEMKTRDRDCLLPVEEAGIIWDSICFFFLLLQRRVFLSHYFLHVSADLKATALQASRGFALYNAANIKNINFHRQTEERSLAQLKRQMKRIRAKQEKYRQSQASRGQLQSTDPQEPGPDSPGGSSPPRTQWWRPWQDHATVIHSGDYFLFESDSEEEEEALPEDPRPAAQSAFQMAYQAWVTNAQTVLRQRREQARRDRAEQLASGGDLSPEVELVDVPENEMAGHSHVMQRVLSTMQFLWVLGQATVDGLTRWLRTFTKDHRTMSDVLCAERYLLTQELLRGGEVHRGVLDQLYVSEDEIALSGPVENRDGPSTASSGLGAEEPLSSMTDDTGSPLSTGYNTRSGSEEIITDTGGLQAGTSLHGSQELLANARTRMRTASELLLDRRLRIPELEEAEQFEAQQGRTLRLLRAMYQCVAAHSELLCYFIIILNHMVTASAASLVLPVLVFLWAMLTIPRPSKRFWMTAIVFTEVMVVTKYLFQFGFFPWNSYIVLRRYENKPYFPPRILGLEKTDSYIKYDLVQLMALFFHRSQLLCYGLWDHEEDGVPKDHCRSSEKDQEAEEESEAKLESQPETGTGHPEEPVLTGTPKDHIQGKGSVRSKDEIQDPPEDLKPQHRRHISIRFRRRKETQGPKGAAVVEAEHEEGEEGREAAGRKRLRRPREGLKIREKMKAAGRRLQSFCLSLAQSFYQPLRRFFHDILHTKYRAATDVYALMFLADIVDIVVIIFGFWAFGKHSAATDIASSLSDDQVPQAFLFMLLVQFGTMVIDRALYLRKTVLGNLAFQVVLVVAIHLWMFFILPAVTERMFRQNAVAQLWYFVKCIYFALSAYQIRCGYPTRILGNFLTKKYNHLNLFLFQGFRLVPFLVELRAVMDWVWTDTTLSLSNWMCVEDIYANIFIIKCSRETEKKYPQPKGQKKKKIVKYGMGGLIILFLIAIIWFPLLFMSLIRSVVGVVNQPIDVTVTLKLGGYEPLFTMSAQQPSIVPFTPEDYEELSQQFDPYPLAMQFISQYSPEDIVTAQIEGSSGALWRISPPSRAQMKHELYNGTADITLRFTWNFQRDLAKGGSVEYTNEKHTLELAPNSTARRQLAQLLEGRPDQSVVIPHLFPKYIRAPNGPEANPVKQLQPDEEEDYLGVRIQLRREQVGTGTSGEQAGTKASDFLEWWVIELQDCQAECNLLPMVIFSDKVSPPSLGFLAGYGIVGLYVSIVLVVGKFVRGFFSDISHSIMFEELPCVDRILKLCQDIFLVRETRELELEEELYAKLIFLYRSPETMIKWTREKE

EC50: ~4 µM
SMILES: Clc1cccc(Cl)c1CSc1nnc(-c2cnccn2)s1 [Yoda1]

Source: paper PMC6856185, “Piezo1 channel activation mimics high glucose as a stimulator of insulin release” (Scientific Reports, 2019)
